Source: paper PMC7875911 (Frontiers in Pharmacology, 2021)
Entries after “also recorded” stand apart in the source; their conditions may differ.

Assays:
[1] = test system: c-fibre evoked excitatory post-synaptic currents; conditions: cited from earlier work
hCav2.3 = experiment: Whole-cell patch clamp, recombinant hCav2.3 in HEK293; assay type: cell-based, human
Protocol: Human embryonic kidney (HEK293T) cells containing the SV40 Large T-antigen were cultured at 37°C, 5% CO2 in Dulbecco’s Modified Eagle’s Medium (DMEM, Invitrogen Life Technologies, Australia), supplemented with 10% fetal bovine serum (FBS, Bovigen, Australia), 1% GlutaMAX and penicillin-streptomycin (Invitrogen, Australia). […]
Depolarization-activated Ca^2+ currents (ICa) in transfected HEK293 cells were recorded in the whole-cell patch clamp configuration. Data were recorded using a MultiClamp 700B amplifier, digitized with a DigiData1440 and controlled using Clampex10.7 software (Molecular Devices, United States). […]
Statistical significance (p < 0.05) was determined using unpaired Student’s t-test or 1-way ANOVA followed by a Tukey multiple comparison. […]
Numerous HVA Cav channel isoforms are present in rat DRG neurons. […] We transiently co-transfected the individual Cav channel α-subunits of interest together with β3 and α2δ1 subunits in HEK293 cells and measured whole-cell I Ca currents by patch clamp. […]

Nav1.7 = conditions: cited from earlier work
Text: Loss-of-function mutation of the SCN9A gene that codes for Nav1.7 leads to congenital insensitivity to pain ([Cox et al., 2006]), whereas SCN9A gain-of-function mutations causes paroxysmal extreme pain disorder and primary erythromelalgia ([Dib-Hajj et al., 2008]). […] Homology of VGIC voltage sensing domains, and particularly those of Nav channels, is at the crux of the development of genuinely selective Nav1.7 modulators ([Kingwell, 2019]). Given the VSD functional importance in neuronal VGICs and their structural homology, it is not surprising that VDPs target related channel families. […] Mammalian Nav and Cav α-subunits are structurally homologous but differ in their gating mechanisms ([Kubota et al., 2017]).

[2] = test system: TTXs-I Na in small-diameter IB4 ^− DRG neurons
Protocol: (§1) Spinal level L3–L5 DRG were removed and placed in ice-cold HEPES-buffered saline (HBS) composed of (in mM): 154 NaCl, 2.5 KCl, 1.8 CaCl2, 1.5 MgCl2, 10 HEPES, and 10 glucose (pH 7.4, 330 ± 5 mOsm). Iridectomy scissors were utilized to cut up ganglia before incubation at 37°C for 15 min in oxygenated HBS containing 5 mg ml^−1 collagenase type 2 (Worthington Biochemical Corp, Lakewood, NJ, United States) followed by 25 min in oxygenated HBS containing 1 mg ml^−1 papain (Worthington Biochemical Corp). […] After enzyme treatment, ganglia were placed in 3 ml of HBS following two room temperature HBS washes. Ganglia were then triturated through fire-polished Pasteur pipettes with decreasing bores to extract cells. Finally, the cells mixed in HBS were plated onto surface modified culture dishes (Corning Primaria™ easy grip). […] DRG cells were pre-treated with 1 μg ml^−1 Alexa Fluor 488-conjugated Bandeiraea simplicifolia IB4 (Invitrogen) for 5 min at room temperature and washed with HBS for 5 min before fluorescence was examined on the inverted microscope (Olympus, IX50) used for patch clamp recordings.
(§2) Cell size was determined from an eyepiece graticule. Whole-cell electrophysiology was conducted at room temperature (22–24°C) in culture dishes perfused with room temperature HBS. The intracellular pipette solution contained (mM): 120 CsCl, 10 HEPES, 10 EGTA, 2 CaCl2, 5 MgATP, 5 Na2GTP, 5 NaCl; pH 7.3 (CsOH); 285 ± 5 mos mol l^−1.
(§3) An EPC-9 patch-clamp amplifier and corresponding PULSE software from HEKA Electronik (Lambrecht/Pfalz, Germany) were used to make recordings. Currents were sampled at 50 kHz and recorded on a hard disk. Borosilicate glass from AM Systems, Everett, WA, United States were used for patch pipettes. The input resistance of the pipettes ranged from 2 to 4 MΩ. […] A built-in procedure of the HEKA amplifier compensated for the capacitive transient currents. A −P/6 protocol was utilized to subtract leak current online. I Ca was generated with the recording protocol which included a depolarization from a holding potential of −80 mV to 0 mV for 10 ms every 30 s. I Na was generated through a recording protocol which included a step depolarization from a holding potential of −80 mV to 0 mV for 10 ms at a frequency of 0.1 Hz. Cells were perfused with the test compound via a pressure driven perfusion system (AutoMate Scientific, United States).
(§4) All data analysis and graphs were generated in OriginPro (Origin Lab Corporation, United States). […] Activation and SSI curves were fit by the modified Boltzmann equation: I or G=1/(1+exp(Vm−V0.5/ka)) Where I is the current or G is the conductance, Vm is the pre-pulse potential, V 0.5 is the half-maximal activation potential and ka is the slope factor.
(§5) Statistical significance (p < 0.05) was determined using unpaired Student’s t-test or 1-way ANOVA followed by a Tukey multiple comparison. All data is presented as mean ± SEM (n), where n is individual cells.

[3] = test system: TTXs-I Na in small-diameter IB4 ^± DRG neurons
Protocol: as §1, §2, §3, §4, §5

SMILES: CSCC[C@@H]1NC(=O)[C@H](Cc2ccc(O)cc2)NC(=O)[C@H](CCCNC(=N)N)NC(=O)[C@@H](NC(=O)[C@@H](N)CC(=O)O)CSSC[C@@H]2NC(=O)[C@@H]3CSSC[C@@H](C(=O)N[C@@H](C)C(=O)N[C@@H](Cc4c[nH]c5ccccc45)C(=O)N[C@@H](CC(=O)O)C(=O)N[C@@H](Cc4ccccc4)C(=O)N[C@H](C(=O)N[C@@H](Cc4ccccc4)C(=O)N[C@H](C(=O)O)[C@@H](C)O)[C@@H](C)O)NC(=O)[C@H](Cc4ccc(O)cc4)NC(=O)[C@H](CCCCN)NC(=O)[C@H](CCSC)NC(=O)[C@H](CCCCN)NC(=O)[C@H](CCCNC(=N)N)NC(=O)[C@H](CCCCN)NC(=O)[C@H](CSSC[C@H](NC(=O)[C@H](CC(=O)O)NC(=O)CNC(=O)[C@H](Cc4ccccc4)NC1=O)C(=O)N[C@@H](CCC(=O)O)C(=O)N[C@@H](CCCCN)C(=O)N[C@@H](CC(=O)O)C(=O)N[C@@H](CCC(=O)O)C(=O)N[C@@H](CC(=O)O)C(=O)N3)NC(=O)CNC(=O)[C@H](CC(C)C)NC(=O)[C@H](Cc1c[nH]cn1)NC(=O)[C@H](CCCCN)NC2=O [Pn3a, µ-Theraphotoxin-Pn3a]
- effect on c-fibre evoked excitatory post-synaptic currents (in words) [1]: reduce c-fibre evoked excitatory post-synaptic currents
- effect on Cav2.3-mediated current (in words) (hCav2.3): no inhibition; also recorded: negligible effects; also recorded: minimally affected
- inhibition of Cav2.3-mediated current (hCav2.3; 10 µM): 2.2 ± 0.9%
- I Na remaining after application [2]: ~50%
- potency loss versus reported recombinant hNav1.7 [2]: ~250 fold
- reversibility on washout of TTXs-I Na inhibition [2]: fully reversible upon washout
- I Na remaining after application [3]: ~50%
- reversibility on washout of TTXs-I Na inhibition [3]: fully reversible upon washout
